In patent US10053432B2, “Substituted [1,2,4]triazole and imidazole compounds” (BASF SE, priority 2013, dated 2018):

Columns and labels:
Type in all cases: cell-based
Conditions in all cases: at 31 ppm; absorption at 405 nm 7 days after inoculation; relative to active compound-free control (100%)
Septoria tritici = test: Activity against leaf blotch on wheat caused by Septoria tritici (Septtr), microtiterplate test
Botrytis cinerea = test: Activity against the grey mold Botrytis cinerea in the microtiterplate test (Botrci)
Pyricularia oryzae = tested on: Pyricularia oryzae

Measured: growth (relative growth in % of the pathogen)

OC(Cn1cncn1)(c1ccc(C#CC2CC2)cc1Cl)C1CC1 (stereo not drawn) [Compound I-1, 1-[2-chloro-4-(2-cyclopropylethynyl)phenyl]-1-cyclopropyl-2-(1,2,4-triazol-1-yl)ethanol]
0%: all assays above
